Measurements published in US6433003B1 (priority 1999, dated 2002).

Tests used:
[1] = in vivo; cited from earlier work
hyperhidrosis [2] = settings: human, in vivo
hyperhidrosis [3] = settings: in vivo; cited from earlier work
[4] = system: gustatory sweating associated with diabetic autonomic neuropathy; settings: in vivo; cited from earlier work
hyperhidrosis [5] = settings: in vivo; cited from earlier work; remark: listed apart in the source

C[N+]1(C)CCC(OC(=O)C(O)(c2ccccc2)C2CCCC2)C1.[Br-] (centres unmarked) [glycopyrrolate]
side effects [1]: few side effects | perspiration associated with the hyperhidrosis (hyperhidrosis [2]): reduction in the perspiration | unwanted perspiration at the location where the glycopyrrolate is applied (hyperhidrosis [2]): reduces the unwanted perspiration | duration of reduction of the hyperhidrosis (hyperhidrosis [3]): up to 4 weeks | side effects (hyperhidrosis [3]): abdominal discomfort | gustatory sweating [4]: prevented the gustatory sweating

botulinum A neurotoxin [BOTOX]
benefit in hyperhidrosis (hyperhidrosis [5]): statistically significant benefit | duration of effect (hyperhidrosis [5]): several months
